≈ marks a conversion by molar mass, not a printed value.
Experiments:
Test in all cases: Antibacterial assay, microtitration MIC (Test A)
Type in all cases: cell-based
E. faecalis MGH-2 = conditions: strain MGH-2; for MIC: Enterococcus faecalis, MGH2, Gram Positive Bacteria, read-out: Minimum Inhibitory Concentrations E. faecalis MGH-2; for Minimum Inhibitory Concentrations E. faecalis MGH-2: Gram Positive Bacteria
Method in brief: (§1)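 Read-out is the MIC, obtained through conventional microtitration testing of Gram-positive and Gram-negative organisms.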

S. aureus UC-76 = conditions: strain UC-76; for MIC: Staphylococcus aureus, UC76, Gram Positive Bacteria, read-out: Minimum Inhibitory Concentrations S. aureus UC-76; for Minimum Inhibitory Concentrations S. aureus UC-76: Gram Positive Bacteria
Method in brief: as §1

S pyogenes C203 = conditions: Gram Positive Bacteria, strain C203; for MIC: read-out: Minimum Inhibitory Concentrations S pyogenes C203
Method in brief: as §1

S. pneumo SV-1 = conditions: Gram Positive Bacteria, strain SV-1; for MIC: read-out: Minimum Inhibitory Concentrations S. pneumo SV-1
Method in brief: as §1

| MIC (E. faecalis MGH-2) [µg/mL] | MIC (S. aureus UC-76) [µg/mL] | MIC (S pyogenes C203) [µg/mL] | MIC (S. pneumo SV-1) [µg/mL] | Compound | Minimum Inhibitory Concentrations E. faecalis MGH-2 (E. faecalis MGH-2) [µg/mL] | Minimum Inhibitory Concentrations S. aureus UC-76 (S. aureus UC-76) [µg/mL] | Minimum Inhibitory Concentrations S pyogenes C203 (S pyogenes C203) [µg/mL] | Minimum Inhibitory Concentrations S. pneumo SV-1 (S. pneumo SV-1) [µg/mL] |
| --- | --- | --- | --- | --- | --- | --- | --- | --- |
| 0.125 (≈ 0.308 µM) | 0.008 (≈ 0.0197 µM) | 0.125 (≈ 0.308 µM) | 0.125 (≈ 0.308 µM) | COc1c(N2C[C@H](CO)[C@@H](CO)C2)c(F)cc2c(=O)c(C(=O)O)cn(C3CC3)c12 [drawing 404] | – | – | – | – |
| 0.5 (≈ 1.12 µM) | 0.15 (≈ 0.336 µM) | 1 (≈ 2.24 µM) | 0.25 (≈ 0.56 µM) | COc1c(N2C[C@]3(CO)CCC[C@]3(CO)C2)c(F)cc2c(=O)c(C(=O)O)cn(C3CC3)c12 [drawing 462] | – | – | – | – |
| 0.125 (≈ 0.263 µM) | 0.015 (≈ 0.0316 µM) | 0.125 (≈ 0.263 µM) | 0.06 (≈ 0.126 µM) | CC(=O)OC[C@@H]1CN(c2c(F)cc3c(=O)c(C(=O)O)cn(C4CC4)c3c2C)C[C@@H]1COC(C)=O [drawing 411] | – | – | – | – |
| – | 0.0015 (≈ 0.0035 µM) | 0.5 (≈ 1.17 µM) | 0.25 (≈ 0.584 µM) | Cc1c(N2CCC(C(O)C(F)(F)F)C2)c(F)cc2c(=O)c(C(=O)O)cn(C3CC3)c12 (stereo not drawn) [drawing 363] | 0.25 | – | – | – |
| 0.5 (≈ 1.23 µM) | 0.06 (≈ 0.148 µM) | 0.25 (≈ 0.615 µM) | 0.25 (≈ 0.615 µM) | COc1c(N2CCC(CO)(CO)C2)c(F)cc2c(=O)c(C(=O)O)cn(C3CC3)c12 [drawing 377] | – | – | – | – |
| 0.5 (≈ 1.05 µM) | 0.03 (≈ 0.063 µM) | 1 (≈ 2.1 µM) | 1 (≈ 2.1 µM) | COCCOCC(O)C1CN(c2c(F)cc3c(=O)c(C(=O)O)cn(C4CC4)c3c2C)CC1(C)C (stereo not drawn) [drawing 433] | – | – | – | – |
| – | – | – | 0.5 (≈ 1.19 µM) | Cc1c(N2CC(C)(CO)C(C)(CO)C2)c(F)cc2c(=O)c(C(=O)O)cn(C3CC3)c12 (stereo not drawn) [drawing 440] | 1 | 0.015 | 1 | – |
| 4 (≈ 7.54 µM) | 1 (≈ 1.88 µM) | 0.25 (≈ 0.471 µM) | 0.125 (≈ 0.236 µM) | Cc1c(N2C[C@@H](COC(=O)C(C)C)[C@@H](COC(=O)C(C)C)C2)c(F)cc2c(=O)c(C(=O)O)cn(C3CC3)c12 [drawing 413] | – | – | – | – |
| – | – | – | – | Cc1c(N2CC(C)(CO)C(C)(CO)C2)c(F)cc2c(=O)c(C(=O)O)cn(C3CC3)c12 (stereo not drawn) [drawing 439] | 0.25 | 0.15 | 0.25 | 0.25 |
| 0.125 (≈ 0.309 µM) | 0.004 (≈ 0.00989 µM) | 0.06 (≈ 0.148 µM) | 0.03 (≈ 0.0742 µM) | COC[C@H]1CN(c2c(F)cc3c(=O)c(C(=O)O)cn(C4CC4)c3c2C)C[C@H]1CO [drawing 406] | – | – | – | – |
| 0.125 (≈ 0.29 µM) | 0.004 (≈ 0.00929 µM) | 0.125 (≈ 0.29 µM) | 0.06 (≈ 0.139 µM) | Cc1c(N2CC3(CO)CCCC3(CO)C2)c(F)cc2c(=O)c(C(=O)O)cn(C3CC3)c12 (stereo not drawn) [drawing 463] | – | – | – | – |
| 0.25 (≈ 0.55 µM) | 0.008 (≈ 0.0176 µM) | 0.5 (≈ 1.1 µM) | 0.25 (≈ 0.55 µM) | O=C(O)c1cn(C2CC2)c2c(OC(F)F)c(N3CC4CC(O)C(O)C4C3)c(F)cc2c1=O (stereo not drawn) [drawing 459] | – | – | – | – |
| 0.5 (≈ 1.14 µM) | 0.125 (≈ 0.286 µM) | 0.25 (≈ 0.572 µM) | 0.5 (≈ 1.14 µM) | Nc1nc(-n2cc(C(=O)O)c(=O)c3cc(F)c(N4C[C@@H](O)[C@@H](O)C4)nc32)c(F)cc1F [drawing 399] | – | – | – | – |
| 0.06 (≈ 0.149 µM) | 0.008 (≈ 0.0199 µM) | 0.125 (≈ 0.311 µM) | 0.06 (≈ 0.149 µM) | Cc1c(N2CC(C(C)O)C(C)(C)C2)c(F)cc2c(=O)c(C(=O)O)cn(C3CC3)c12 (stereo not drawn) [drawing 432] | – | – | – | – |
| 0.125 (≈ 0.293 µM) | 0.008 (≈ 0.0188 µM) | 0.25 (≈ 0.586 µM) | 0.06 (≈ 0.141 µM) | COc1c(N2CCC(C(O)C(F)F)C2)c(F)cc2c(=O)c(C(=O)O)cn(C3CC3)c12 (stereo not drawn) [drawing 349] | – | – | – | – |
| 0.125 (≈ 0.299 µM) | 0.004 (≈ 0.00956 µM) | 0.125 (≈ 0.299 µM) | 0.06 (≈ 0.143 µM) | CCOC[C@@H]1CN(c2c(F)cc3c(=O)c(C(=O)O)cn(C4CC4)c3c2C)C[C@@H]1CO [drawing 409] | – | – | – | – |
| 0.06 (≈ 0.146 µM) | 0.004 (≈ 0.00975 µM) | 0.125 (≈ 0.305 µM) | 0.06 (≈ 0.146 µM) | Cc1c(N2CCC(C(O)C(F)F)C2)c(F)cc2c(=O)c(C(=O)O)cn(C3CC3)c12 (stereo not drawn) [drawing 343] | – | – | – | – |
| 0.25 (≈ 0.597 µM) | 0.008 (≈ 0.0191 µM) | 0.25 (≈ 0.597 µM) | 0.25 (≈ 0.597 µM) | COc1c(N2CC3CC(O)C(O)C3C2)c(F)cc2c(=O)c(C(=O)O)cn(C3CC3)c12 (stereo not drawn) | – | – | – | – |

Source: US20050107423A1, “Quinolone antibacterial agents” (priority 2003, published 2005)
